Experimental data as given in PubChem BioAssay AID1963849 (Molecular Pharmacology Branch, DTP, NCI, 2024).
Several values for one entry are separate records, joined by “and”; a condition that tells them apart may be missing. Identical values can stand only once.

Test system: 299254-011-R-J1-PDC complex spheroid viability
Test: Anticancer human tumor 299254-011-R-J1-PDC patient-derived melanoma cell line growth inhibition [POLQ]
Conditions: for viability, T/C: stronger effect = lower value
Experimental: Multicellular complex tumor spheroid response to Polymerase (POL) inhibitors (novobiocin, ART-558, RP6685) in combination with a variety of drugs and investigational agents in selected tumor cell lines
The POL inhibitors (novobiocin, ART-558, and RP6685) were evaluated both individually and in combination with standard of care and investigational anticancer small molecules within a complex spheroid model of solid tumors. . Complex spheroids include a stromal component modeled by human endothelial cells (HUVEC) and fibroblasts modeled by human mesenchymal stem cells (MSCs). The concentration ranges selected for each drug and investigational agent were based upon clinically achievable concentrations if the clinical Cmax of the agent was known.
Compounds. The drugs and investigational agents: novobiocin (NSC847541), ART-558 (NSC835418), RP-6685 (NSC848927), peposertib (NSC802822), ceralasertib (NSC780249), elimusertib (NSC800525), camonsertib (NSC841442), AZD-1390 (NSC803789), olaparib (NSC753686), talazoparib (NSC767125), rucaparib (NSC756644), sotorasib (NSC818433), MRTX-1133 (NSC836407), SN-38 (NSC673596), topotecan (NSC609699), epotoside (NSC141540), doxorubicin (NSC123127), gemcitabine (NSC613327), 5-fluorouracil (NSC19893), paclitaxel (NSC125973), vemurafenib (NSC761431), MSA-2 (NSC828583), SN-011 (NSC837082), adavosertib (NSC754352), prexasertib (NSC758257), carboplatin (NSC241240) and oxaliplatin (NSC266046), were obtained from the National Cancer Institute (NCI) Developmental Therapeutics Program Chemical Repository (21). The FDA-approved anticancer drug set is available from the Developmental Therapeutics Program at https://dtp.cancer.gov/organization/dscb/obtaining/. […] The stock solutions were prepared in dimethyl sulfoxide (DMSO, Sigma-Aldrich, St. Louis, MO, cat. D2650), except for the platinum compounds which were prepared in saline (Quality Biological, Gaithersburg, MD, cat. 114-055-101), at 800-fold the tested concentration and stored at -70 degrees C prior to their use. All drugs and investigational agents were tested over a range starting from a high concentration at or near the clinical Cmax and decreasing in half-log increments. If the clinical Cmax for an agent had not been determined, the highest concentration tested was 10 microM, except for SN-38, which was tested at a high concentration of 1 microM.
Cell Culture. All cells were maintained in an incubator at 37 degrees C and 5% CO2 with 95% humidity. The PDC lines were cultured according to standard operating procedures established by the NCI PDMR (https://pdmr.cancer.gov). Table 3 of the manuscript, lists the cell lines along with the number of the three cell types plated to form the mct-spheroids and media for tumor cell growth. After thawing, all PDC lines, except 997537-175-T-J1-PDC and 415267-285-R-J2-PDC, were cultured in Matrigel-coated flasks prepared with a working solution of 1X Ham's F-12 nutrient mix, without supplementation (Thermo Fisher Scientific, cat. 11765054), 100 U/mL penicillin-streptomycin (Thermo Fisher Scientific, cat. 15140122), and 2.5% Matrigel (Corning Inc., Corning, NY, cat. 354248) for the first three passages. The two PDC lines 997537-175-T-J1-PDC and 415267-285-R-J2-PDC were cultured on uncoated flasks. The 857933-349-R-J2-PDC line was cultured in 6C/Colon 1B media containing advanced DMEM/F-12 (Thermo Fisher Scientific, cat. 12634028), 10 mM HEPES (Thermo Fisher Scientific, cat. 15630080), 1X GlutaMAX supplement (Thermo Fisher Scientific, cat. 35050061), 0.1 mg/mL primocin (InvivoGen, San Diego, CA, cat. ant-pm-2), 10% defined fetal bovine serum, heat inactivated (HyClone Laboratories Inc., Logan, UT, cat. SH30070.03HI), 50% L-WRN conditioned media (ATCC, cat. CRL-3276), 1.25 mM N-Acetyl-L-cysteine (Sigma-Aldrich, cat. A9165), 10 mM nicotinamide (Sigma-Aldrich, cat. N0636), 1X B-27 supplement (Thermo Fisher Scientific, cat. 17504044), 1X N-2 supplement (Thermo Fisher Scientific, cat. […]

[1] = curve of first compound, second compound 0.0316 µM
[2] = curve of first compound, second compound 0.1 µM
[3] = curve of first compound, second compound 0.316 µM
[4] = curve of first compound, second compound 1 µM
[5] = curve of first compound, second compound 3.16 µM
[6] = curve of first compound, second compound 10 µM
[7] = second compound 0.0316 µM, first compound 0.0316 µM
[8] = second compound 0.0316 µM, first compound 0.1 µM
[9] = second compound 0.0316 µM, first compound 0.316 µM
[10] = second compound 0.0316 µM, first compound 1 µM
[11] = second compound 0.0316 µM, first compound 3.16 µM
[12] = second compound 0.0316 µM, first compound 10 µM
[13] = second compound 0.1 µM, first compound 0.0316 µM
[14] = second compound 0.1 µM, first compound 0.1 µM
[15] = second compound 0.1 µM, first compound 0.316 µM
[16] = second compound 0.1 µM, first compound 1 µM
[17] = second compound 0.1 µM, first compound 3.16 µM
[18] = second compound 0.1 µM, first compound 10 µM
[19] = second compound 0.316 µM, first compound 0.0316 µM
[20] = second compound 0.316 µM, first compound 0.1 µM
[21] = second compound 0.316 µM, first compound 0.316 µM
[22] = second compound 0.316 µM, first compound 1 µM
[23] = second compound 0.316 µM, first compound 3.16 µM
[24] = second compound 0.316 µM, first compound 10 µM
[25] = second compound 1 µM, first compound 0.0316 µM
[26] = second compound 1 µM, first compound 0.1 µM
[27] = second compound 1 µM, first compound 0.316 µM
[28] = second compound 1 µM, first compound 1 µM
[29] = second compound 1 µM, first compound 3.16 µM
[30] = second compound 1 µM, first compound 10 µM
[31] = second compound 3.16 µM, first compound 0.0316 µM
[32] = second compound 3.16 µM, first compound 0.1 µM
[33] = second compound 3.16 µM, first compound 0.316 µM
[34] = second compound 3.16 µM, first compound 1 µM
[35] = second compound 3.16 µM, first compound 3.16 µM
[36] = second compound 3.16 µM, first compound 10 µM
[37] = second compound 10 µM, first compound 0.0316 µM
[38] = second compound 10 µM, first compound 0.1 µM
[39] = second compound 10 µM, first compound 0.316 µM
[40] = second compound 10 µM, first compound 1 µM
[41] = second compound 10 µM, first compound 3.16 µM
[42] = second compound 10 µM, first compound 10 µM
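Note: spheroids exposed to drugs for one week before measurement.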
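Throughout, for viability, T/C: percent viability relative to DMSO vehicle control taken as 100%.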

COc1ccc([C@@H](O)c2cc(-c3ncnc4cc(N5CCOCC5)ccc34)c(F)cc2Cl)nn1 + Nc1ccc(C#CCN(C(=O)Cc2ncc(C(F)(F)F)cc2C(F)(F)F)c2ccc(F)cc2)nn1
IC50 [1]: > 10000 nM
IC50 [2]: 9370 nM
IC50 [3]: > 10000 nM
IC50 [4]: 9000 nM
IC50 [5]: > 10000 nM
IC50 [6]: > 10000 nM
viability, T/C [7]: 116%
viability, T/C [8]: 112%
viability, T/C [9]: 98%
viability, T/C [10]: 105%
viability, T/C [11]: 91.5%
viability, T/C [12]: 50%
viability, T/C [13]: 94.3%
viability, T/C [14]: 89.4%
viability, T/C [15]: 100%
viability, T/C [16]: 105%
viability, T/C [17]: 105%
viability, T/C [18]: 47%
viability, T/C [19]: 106%
viability, T/C [20]: 108%
viability, T/C [21]: 105%
viability, T/C [22]: 104%
viability, T/C [23]: 88.8%
viability, T/C [24]: 54.3%
viability, T/C [25]: 102%
viability, T/C [26]: 98.5%
viability, T/C [27]: 105%
viability, T/C [28]: 106%
viability, T/C [29]: 106%
viability, T/C [30]: 44.4%
viability, T/C [31]: 103%
viability, T/C [32]: 101%
viability, T/C [33]: 96.7%
viability, T/C [34]: 96%
viability, T/C [35]: 81.9%
viability, T/C [36]: 54.4%
viability, T/C [37]: 99.1%
viability, T/C [38]: 93.5%
viability, T/C [39]: 91.1%
viability, T/C [40]: 86.4%
viability, T/C [41]: 80.4%
viability, T/C [42]: 54%

C=CCn1c(=O)c2cnc(Nc3ccc(N4CCN(C)CC4)cc3)nc2n1-c1cccc(C(C)(C)O)n1
viability, T/C (compound 0.00316 µM): 101% and 90.2% and 103%
viability, T/C (compound 0.01 µM): 98.3% and 97.1% and 94.1%
viability, T/C (compound 0.0316 µM): 106% and 114% and 110%
viability, T/C (compound 0.1 µM): 115% and 104% and 105%
viability, T/C (compound 0.316 µM): 83.5% and 95.6% and 103%
viability, T/C (compound 1 µM): 79.1% and 78.9% and 58.3%
IC50 (curve of compound): > 1000 nM

CC1COCCN1c1cc(C2(O)CC3CCC(C2)O3)c2cnn(-c3ccn[nH]3)c2n1 (stereo not drawn) + Nc1ccc(C#CCN(C(=O)Cc2ncc(C(F)(F)F)cc2C(F)(F)F)c2ccc(F)cc2)nn1
IC50 [1]: 168 nM
IC50 [2]: 173 nM
IC50 [3]: 130 nM
IC50 [4]: 138 nM
IC50 [5]: 98.2 nM
IC50 [6]: 97.1 nM
viability, T/C [7]: 90.4%
viability, T/C [8]: 61.6%
viability, T/C [9]: 34.3%
viability, T/C [10]: 27.1%
viability, T/C [11]: 15.7%
viability, T/C [12]: 11.1%
viability, T/C [13]: 87.4%
viability, T/C [14]: 55.3%
viability, T/C [15]: 42.5%
viability, T/C [16]: 29.8%
viability, T/C [17]: 15.6%
viability, T/C [18]: 13.2%
viability, T/C [19]: 80.6%
viability, T/C [20]: 49.6%
viability, T/C [21]: 39.5%
viability, T/C [22]: 26.6%
viability, T/C [23]: 18.5%
viability, T/C [24]: 11.5%
viability, T/C [25]: 91%
viability, T/C [26]: 55.7%
viability, T/C [27]: 35.2%
viability, T/C [28]: 21.5%
viability, T/C [29]: 16.5%
viability, T/C [30]: 12.9%
viability, T/C [31]: 79.1%
viability, T/C [32]: 49.5%
viability, T/C [33]: 31.8%
viability, T/C [34]: 23.1%
viability, T/C [35]: 18.9%
viability, T/C [36]: 14%
viability, T/C [37]: 73.8%
viability, T/C [38]: 48%
viability, T/C [39]: 35.8%
viability, T/C [40]: 22.1%
viability, T/C [41]: 18.4%
viability, T/C [42]: 15.5%

O=c1[nH]cc(F)c(=O)[nH]1
viability, T/C (compound 0.0316 µM): 95.9% and 94% and 105%
viability, T/C (compound 0.1 µM): 103% and 102% and 106%
viability, T/C (compound 0.316 µM): 105% and 118% and 103%
viability, T/C (compound 1 µM): 96.4% and 103% and 93.8%
viability, T/C (compound 3.16 µM): 90.9% and 85.9% and 98.6%
viability, T/C (compound 10 µM): 74.2% and 79.7% and 81.9%
IC50 (curve of compound): > 10000 nM
